# Measurements reported in patent publication US12459951B2, “Compounds that interact with RAS superfamily proteins for treatment of cancers, inflammatory diseases, rasopathies, and fibrotic disease” (SHY Therapeutics, LLC, priority 2022, dated 2025).
# Key:
# Rac-1 = molecular target: T1, Rac-1 (Homo sapiens, UniProt P63000); experiment: Ras GTP Binding Domain Inhibition Assay (Ras Superfamily Assay); settings: read-out: Rac-1: % inh.
# T1 construct: made in house
# Summary of the method: (§1)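 Binding of 100 nM fluorescent GTP (Cy3 or Cy5, 45 min, room temperature) was read after washes from plate-captured His-tagged protein. Beforehand, compounds at 20 μM or in dilution series for IC50 sat 3 h on the protein in Tris buffer pH 7.4 or 7.0 with 1% DMSO, Sos GEF optionally added for the last hour.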
# KRas wild type = experiment: as above; settings: 20 μM compound; for KRas wild type + SOS: % inh.: with SOS; for KRas wild type: % inh.: without SOS
# Summary of the method: as §1
# KRas G12D mutant = experiment: as above; settings: 20 μM compound; for KRas G12D mutant + SOS: % inh.: with SOS; for KRas G12D mutant: % inh.: without SOS
# Summary of the method: as §1
# IL6 = experiment: IL-6 Quantification Assay (ELISA), LPS-stimulated RAW 264.7; format: cell-based; set-up: inhibition: dose or concentration left out as unconfirmed; settings: Mus musculus, RAW264.7; read-out: IL-6: % inh.
# TNF-alpha = TNF-alpha Quantification Assay (ELISA), LPS-stimulated RAW 264.7; format: cell-based; settings: Mus musculus, RAW264.7; at 10 μM; read-out: TNFα: % inh.
# Erk1/2 phosphorylation = experiment: Erk1/2 Phosphorylation Assay (western blot), Panc-1; format: cell-based, human; settings: at 10 μM, * = activation
# Summary of the method: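 Phospho-Erk1/2 (Thr202/Tyr204) was detected by western blot in lysates of Panc-1 cells (KRas G12D). These had 6 h, 37° C exposure to 10 μM compound or a dilution series for IC50, in 0.3% DMSO. Cells were either starved overnight in 0.5% FBS with a 15-min 1.5 ng/ml EGF pulse, or kept unstimulated in 10% FBS.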
Compound,inhibition at 20 µM (Rac-1) [%],KRas wild type + SOS: % inh. (KRas wild type),KRas wild type: % inh. (KRas wild type),KRas G12D mutant + SOS: % inh. (KRas G12D mutant),KRas G12D mutant: % inh. (KRas G12D mutant),inhibition (IL6) [%],inhibition at 10 µM (TNF-alpha) [%],% inh of Erk1/2 phosphorylation in Panc-1 (Erk1/2 phosphorylation)
"COc1cccnc1Nc1nc(-c2nccn2C)nn2cc(-c3ccn(C)n3)c(C)c12 [Compound 112, N-(3-Methoxypyridin-2-yl)-5-methyl-2-(1-methyl-1H-imidazol-2-yl)-6-(1-methyl-1H-pyrazol-3-yl)pyrrolo[2,1-f][1,2,4]triazin-4-amine]",0,0 (0 = 0% inhibition),A (A = 1-25% inhibition),A (A = 1-25% inhibition),A (A = 1-25% inhibition),25 to 49,0,A* (1-25% activation)
"Cc1c(-c2ccn(C)n2)cn2nc(-c3nccn3C)nc(Nc3n[nH]c(C4CC4)n3)c12 [Compound 113, N-(5-Cyclopropyl-1H-1,2,4-triazol-3-yl)-5-methyl-2-(1-methyl-1H-imidazol-2-yl)-6-(1-methyl-1H-pyrazol-3-yl)pyrrolo[2,1-f][1,2,4]triazin-4-amine]",76 to 100,D (D = 76-100% inhibition),C (C = 50-75% inhibition),D (D = 76-100% inhibition),D (D = 76-100% inhibition),75 to 100,25 to 49,D* (85-100% activation)
"COc1ccnc(Nc2nc(-c3nccn3C)nn3cc(-c4ccn(C)n4)c(C)c23)n1.Cl [Compound 114, N-(4-Methoxypyrimidin-2-yl)-5-methyl-2-(1-methyl-1H-imidazol-2-yl)-6-(1-methyl-1H-pyrazol-3-yl)pyrrolo[2,1-f][1,2,4]triazin-4-amine hydrochloride salt]",76 to 100,D (D = 76-100% inhibition),D (D = 76-100% inhibition),D (D = 76-100% inhibition),D (D = 76-100% inhibition),75 to 100,50 to 74,B* (26-49% activation)
"Cc1c(-c2ccn(C)n2)cn2nc(-c3nccn3C)nc(Nc3ncccn3)c12.Cl [Compound 115, 5-Methyl-2-(1-methyl-1H-imidazol-2-yl)-6-(1-methyl-1H-pyrazol-3-yl)-N-(pyrimidin-2-yl)pyrrolo[2,1-f][1,2,4]triazin-4-amine hydrochloride salt]",1 to 25,C (C = 50-75% inhibition),D (D = 76-100% inhibition),C (C = 50-75% inhibition),C (C = 50-75% inhibition),50 to 74,0,C (50-84% inhibition)
"COc1cnc(Nc2nc(-c3nccn3C)nn3cc(-c4ccn(C)n4)c(C)c23)nc1.Cl [Compound 117, N-(5-Methoxypyrimidin-2-yl)-5-methyl-2-(1-methyl-1H-imidazol-2-yl)-6-(1-methyl-1H-pyrazol-3-yl)pyrrolo[2,1-f][1,2,4]triazin-4-amine hydrochloride salt]",1 to 25,A (A = 1-25% inhibition),A (A = 1-25% inhibition),A (A = 1-25% inhibition),A (A = 1-25% inhibition),1 to 24,1 to 24,B (26-49% inhibition)

# The next lines start with results.
inhibition at 20 µM (Rac-1) [%],KRas wild type + SOS: % inh. (KRas wild type),KRas wild type: % inh. (KRas wild type),KRas G12D mutant + SOS: % inh. (KRas G12D mutant),KRas G12D mutant: % inh. (KRas G12D mutant),Compound,inhibition (IL6) [%],inhibition at 10 µM (TNF-alpha) [%],% inh of Erk1/2 phosphorylation in Panc-1 (Erk1/2 phosphorylation)
76 to 100,C (C = 50-75% inhibition),D (D = 76-100% inhibition),C (C = 50-75% inhibition),D (D = 76-100% inhibition),"Cc1c(-c2ccn(C)n2)cn2nc(-c3nccn3C)nc(Nc3cn(C(C)C)nn3)c12 [Compound 109, N-(1-Isopropyl-1H-1,2,3-triazol-4-yl)-5-methyl-2-(1-methyl-1H-imidazol-2-yl)-6-(1-methyl-1H-pyrazol-3-yl)pyrrolo[2,1-f][1,2,4]triazin-4-amine]",50 to 74,0,B* (26-49% activation)
50 to 75,C (C = 50-75% inhibition),B (B = 26-49% inhibition),B (B = 26-49% inhibition),C (C = 50-75% inhibition),"COc1cnc(Nc2nc(-c3nccn3C)nn3cc(-c4ccn(C)n4)c(C)c23)cn1 [Compound 110, N-(5-Methoxypyrazin-2-yl)-5-methyl-2-(1-methyl-1H-imidazol-2-yl)-6-(1-methyl-1H-pyrazol-3-yl)pyrrolo[2,1-f][1,2,4]triazin-4-amine]",1 to 24,1 to 24,B* (26-49% activation)
26 to 49,A (A = 1-25% inhibition),C (C = 50-75% inhibition),B (B = 26-49% inhibition),B (B = 26-49% inhibition),"Cc1c(-c2ccn(C)n2)cn2nc(-c3nccn3C)nc(Nc3ccn(C4CC4)n3)c12 [Compound 111, N-(1-Cyclopropyl-1H-pyrazol-3-yl)-5-methyl-2-(1-methyl-1H-imidazol-2-yl)-6-(1-methyl-1H-pyrazol-3-yl)pyrrolo[2,1-f][1,2,4]triazin-4-amine]",75 to 100,50 to 74,A* (1-25% activation)
50 to 75,D (D = 76-100% inhibition),C (C = 50-75% inhibition),C (C = 50-75% inhibition),C (C = 50-75% inhibition),"Cc1c(-c2ccn(C)n2)cn2nc(-c3nccn3C)nc(Nc3ccncn3)c12.Cl [Compound 116, 5-Methyl-2-(1-methyl-1H-imidazol-2-yl)-6-(1-methyl-1H-pyrazol-3-yl)-N-(pyrimidin-4-yl)pyrrolo[2,1-f][1,2,4]triazin-4-amine hydrochloride salt]",25 to 49,0,D* (85-100% activation)
76 to 100,D (D = 76-100% inhibition),D (D = 76-100% inhibition),D (D = 76-100% inhibition),D (D = 76-100% inhibition),"Cc1c(-c2ccn(C)n2)cn2nc(-c3nccn3C)nc(Nc3ccccn3)c12 [Compound 118, 5-Methyl-2-(1-methyl-1H-imidazol-2-yl)-6-(1-methyl-1H-pyrazol-3-yl)-N-(pyridin-2-yl)pyrrolo[2,1-f][1,2,4]triazin-4-amine]",25 to 49,1 to 24,D* (85-100% activation)
